# Test results published in ChEMBL document CHEMBL1138308, “Synthesis and antibacterial activity of potent heterocyclic oxazolidinones and the identification of RBx 8700” (2007).
# System: Mycobacterium tuberculosis
# Assay: Antibacterial activity against multi drug resistant Mycobacterium tuberculosis
# Assay type: functional
smiles,measurement,value
CC(=O)NC[C@H]1CN(c2ccc(N3CCN(c4ccc([N+](=O)[O-])s4)CC3)c(F)c2)C(=O)O1,MIC90,1 µg/mL
